pIC50: −log10 of the molar value.
Biological target: urease (Canavalia ensiformis, UniProt P07374)
Test: biochemical

urease, sequence (P07374 whole entry): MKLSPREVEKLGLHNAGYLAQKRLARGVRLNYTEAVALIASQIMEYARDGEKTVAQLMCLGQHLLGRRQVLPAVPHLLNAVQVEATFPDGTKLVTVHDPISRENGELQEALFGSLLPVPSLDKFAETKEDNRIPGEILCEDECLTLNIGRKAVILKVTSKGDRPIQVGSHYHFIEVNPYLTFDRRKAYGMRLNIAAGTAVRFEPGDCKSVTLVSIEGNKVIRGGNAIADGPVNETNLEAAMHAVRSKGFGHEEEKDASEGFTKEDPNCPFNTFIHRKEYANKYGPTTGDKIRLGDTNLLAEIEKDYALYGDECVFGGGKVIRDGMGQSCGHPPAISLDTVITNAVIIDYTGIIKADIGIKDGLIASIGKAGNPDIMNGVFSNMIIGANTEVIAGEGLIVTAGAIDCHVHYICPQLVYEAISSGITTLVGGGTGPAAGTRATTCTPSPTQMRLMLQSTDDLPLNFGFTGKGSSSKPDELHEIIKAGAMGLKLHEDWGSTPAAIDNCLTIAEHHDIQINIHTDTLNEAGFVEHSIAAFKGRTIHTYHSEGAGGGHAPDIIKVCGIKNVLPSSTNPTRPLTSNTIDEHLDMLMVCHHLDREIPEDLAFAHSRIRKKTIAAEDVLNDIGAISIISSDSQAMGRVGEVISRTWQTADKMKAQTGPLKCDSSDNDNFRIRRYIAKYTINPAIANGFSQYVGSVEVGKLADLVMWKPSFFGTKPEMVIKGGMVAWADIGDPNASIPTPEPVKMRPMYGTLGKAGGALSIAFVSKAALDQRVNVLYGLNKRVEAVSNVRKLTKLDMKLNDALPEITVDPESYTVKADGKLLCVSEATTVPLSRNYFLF

NC(N)=S [Thiourea]
pIC50: 3.96
